Results reported in publication PMC4449000, “Acyclovir Has Low but Detectable Influence on HLA-B*57:01 Specificity without Inducing Hypersensitivity” (PLoS ONE, 2015).
“And” between values parts separate entries of the source, which are not always exact repeats. Identical values can stand only once. Counter-ions that a name gives are not always drawn. Like-named read-outs stand apart in the source and are kept apart here. Ends that are not written are not given here.

Tests used:
HLA-B*58:01 = HLA-B*58:01 (Homo sapiens, UniProt P01889, A329T/C349S/D201E/D98Y/E176V/E187L/E204Q/E69T/G107R/I218V/I90N/K202T/L105A/L119I/N104I/N87E/Q89R/Q94S/R106L/R155S/R180L/R86G/S101N/S121R/S35A/S48A/T118I/V127L/V306I/V36M/Y140S/Y91M); test: Direct binding of radiolabeled […] to HLA-B*58:01 (control); details: control allele (Fig 6B)
Procedure: (§1) Quantitative assays to measure the binding affinity of peptides to purified HLA-B*57:01 molecules based on the inhibition of binding of a radiolabeled standard peptide were performed as previously described. Briefly, 1–10 nM of radiolabeled peptide was co-incubated at room temperature with 1 nM to 1 μM purified HLA-B*57:01 in the presence of 1–3 μM human β2-microglobulin (Scripps Laboratories; San Diego, CA) and a mixture of protease inhibitors. After a 2-day incubation, binding of the radiolabeled peptide to the MHC class I molecule was determined by capturing MHC/peptide complexes on Greiner Lumitrac 600 microplates (Greiner Bio-One; Monroe, North Carilina) coated with the W6/32 antibody, and measuring bound counts per minute (cpm) using the TopCount microscintillation […] counter (PerkinElmer; Waltham, Massachusetts). For competition assays, the concentration of peptide yielding IC50 of the binding of the radiolabeled peptide was calculated. Peptides were typically tested at six different concentrations covering a 100,000-fold dose range.
(§2) For direct binding studies in the absence of a competitor peptide, a purified peptide with sequence […] was ordered from Synthetic Biomolecules (San Diego, CA) and its affinity for either HLA-B*57:01 or HLA-B*58:01 was tested in the presence or absence of abacavir, or acyclovir, in a dose dependent manner.

HLA-B*57:01 = HLA-B*57:01 (Homo sapiens, UniProt P01889, D201E/D98Y/E176V/E187L/E204Q/E69M/E70A/G107R/I90N/K202T/L105A/L119I/N104I/N87E/Q89R/Q94S/R106L/R155S/R180L/R86G/S101N/S121V/S35A/S48A/T118I/V36M/Y140S/Y91M); test: Direct binding of radiolabeled […] to HLA-B*57:01 without competitor peptide; details: increasing doses of drug, four experimental runs in triplicates (Fig 6A)
Procedure: as §1, §2

[1] = tested on: HLA-B*57:01 single allele transfected 721.221 cell line; test: Peptide elution and LC-MS identification from drug-treated cells; assay type: cell-based, human
Procedure: For elution studies, 4–5 x 10^9 cells from the HLA-B*57:01 single allele transfected 721.221 cell line were used. Treated cells were incubated with acyclovir at a concentration of 500 μg/mL for 14 hr at 37°. Cells were harvested and stored at -80°C. Upon thawing, cells were lysed using cell lysis buffer in the presence of protease inhibitors. The lysate was centrifuged at 100,000 x g for 1 hr and the supernatant was collected and passed through a 0.8/0.2 μm filter (VWR International, TX). The filtrate was collected and passed through a sepharose CL-4B (Sigma-Aldrich, MO) column to capture any remaining materials in the lysate that may clog the antibody columns. The filtrate was then passaged through a column packed with protein A sepharose (PAS) beads (sigma) coated with MK-D6 (MTCC HB-3, VA) antibody which served to as an irrelevant antibody (specific for the mouse class II molecule, I-A^d) used to derive a negative control peptide extract. Next, the filtrate was passed through a second PAS column coated with W6/32 antibody (MTCC HB-95) which captures HLA class I molecules. The columns were washed sequentially with: 1) 2 column volumes of lysis buffer, 2) 20 column volumes of 20 mM Tris-HCL (pH 8.0, 150 mM NaCl), 3) 20 column volumes of 20 mM Tri-HCl (pH 8.0, 1.0 M NaCl), and 4) 20 column volumes of 20 mM Tris-HCl (pH 8.0), and then eluted with 4 column volumes of 0.2 M glacial acetic acid. The eluted peptides were then collected and spun at 3,500g at 4°C until 98% of the solution had passed through Millipore ultrafiltration units with a 3,500 Da cut-off (EMD Millipore, MA) to exclude β-2 microglobulin. The filtrate was then collected and concentrated in vacuo for LC-MS analysis.
Peptides were analyzed by nanoflow high-performance liquid chromatography (HPLC)/microelectrospray ionization, coupled directly to a Thermo Fisher Scientific FT-ICR mass spectrometer, equipped with a home-built, front-end electron transfer dissociation (FETD) source. An aliquot of peptide sample was taken to dryness in a vacuum concentrator. Peptides were amidated in a solution that contained 1M histamine-HCl (20 μL) in 1M pyridine-HCl buffer and 0.1M EDC in pyridine-HCl buffer. The solution was sonicated for 3 hours before being dried in a vacuum concentrator and then reconstituted in 0.1% acetic acid.
Data were acquired as previously described. In brief, a pre-column, loaded with 5×10^7 to 2×10^8 cell equivalents of HLA-B*57:01 eluted peptides was connected with polytetrafluoroethylene tubing (0.06-in. o.d. and 0.012-in. i.d.; Zeus Industrial Products) to the end of an analytical HPLC column (360 μm o.d.×50 μm i.d.) containing 6–7 cm of C18 reverse-phase packing material (5-μm particles; YMC). […]

purified HLA-B*57:01 [2] = target: T1, purified HLA-B*57:01 (Homo sapiens, UniProt P01889, D201E/D98Y/E176V/E187L/E204Q/E69M/E70A/G107R/I90N/K202T/L105A/L119I/N104I/N87E/Q89R/Q94S/R106L/R155S/R180L/R86G/S101N/S121V/S35A/S48A/T118I/V36M/Y140S/Y91M); test: HLA binding assay: inhibition of binding of a radiolabeled standard peptide to purified HLA-B*57:01 (competition); details: for number of the 7 peptides ending in I with increased affinity for HLA-B*57:01: 7 individual peptides with I at P9, two independent runs in triplicates (Fig 5); for IC50: Mean ± SEM, S5 Fig, unit inferred
[3] = tested on: HLA-B*57:01 positive PBMC; test: Culture and detection of drug responsive T cells (intracellular IFN-γ, flow cytometry); assay type: cell-based, human; details: 10 μg/mL drug, 14 day culture, restimulation with drug treated C1R.B57; two of two donors
Procedure: Drug responsive short-term T cell lines were produced from cryopreserved PBMC, as previously described. […] From day 3 and every 3 days, 50% of media was replaced and 20 U/ml of recombinant human interleukin (IL)-2 (Peprotech) was added to cultures. […] Samples were surface labeled for CD4 and CD8 expression on ice and then fixed and permeabilized for the detection of intra-cellular IFN-γ, as previously described. Abacavir responsive cells were then detected using flow cytometry (Gallios; Beckman Coulter). Lymphocytes were gated on the basis of forward and side scatter properties. The lymphocyte gate was then gated for CD8, but not CD4, positivity using a Boolean logic gate. The frequency of CD8 and IFN-γ double positive cells was determined using Kaluza software (Beckman Coulter).

purified HLA-B*57:01 [4] = target: T1, purified HLA-B*57:01; details: previously observed; cited from earlier work
[5] = tested on: HLA-B*57:01 single allele transfected 721.221 cell line; details: abacavir; not measured in this paper, no reference printed at b57; cited from earlier work

| Compound | effect of drug on binding of KAAKYRVSV to HLA-B*58:01 (HLA-B*58:01; radiolabeled KAAKYRVSV) | increase in the level of bound peptide KAAKYRVSV on HLA-B*57:01 (HLA-B*57:01; radiolabeled KAAKYRVSV) [fold] | unique peptide sequences identified from the drug treated sample only ([1]; acyclovir 500 μg/mL, 14 hr, 37°, excludes 91 sequences present in both samples) | number of eluted peptides with a C-terminal isoleucine in the presence of the drug ([1]; acyclovir 500 μg/mL, 14 hr, includes three peptides present in both samples, vs four in untreated, p = 0.073) | Number of peptides that do not have isoleucine at C terminus (Treated) ([1]; acyclovir treated cells, peptides found in both treated and untreated samples not included) | Number of peptides that have isoleucine at C terminus (Treated) ([1]; acyclovir treated cells, peptides found in both treated and untreated samples not included, one-sided Fisher's exact test p = 0.0726) | number of the 7 peptides ending in I with increased affinity for HLA-B*57:01 (purified HLA-B*57:01 [2]) | change in HLA-B*57:01 affinity of peptides ending in C (purified HLA-B*57:01 [2]; individual peptides with C at P9 (S4 Fig)) | effect on HLA-B*57:01 binding affinity for three 9-mer peptides with a C-terminal valine (purified HLA-B*57:01 [2]; screen of seven drugs, one experimental run in quadruplicates (S3 Fig)) | drug specific CD8+/IFN-γ+ T-cell response in PBMC primed and restimulated with the same drug [3] | increase in affinity for I and V peptides in the presence of abacavir (PSCPL) (purified HLA-B*57:01 [4]) [fold] | effect of drug on binding of […] to HLA-B*58:01 (HLA-B*58:01; radiolabeled […]) | increase in the level of bound peptide […] on HLA-B*57:01 (HLA-B*57:01; radiolabeled […]) | largest change / increase of peptide binding affinity (IC50) for HLA-B*57:01 in the presence of the drug (purified HLA-B*57:01 [2]; individual peptides, summary statement) | peptides with a C-terminal valine presented exclusively in the presence of the drug [5] | IC50 (purified HLA-B*57:01 [2]; 0.5 mg/mL acyclovir, p < 0.01 vs vehicle, read-out: IC-50 for HLA-B*57:01, 0.5 mg/mL acyclovir) [nM] | IC50 (purified HLA-B*57:01 [2]; vehicle, read-out: IC-50 for HLA-B*57:01, vehicle) [nM] |
| --- | --- | --- | --- | --- | --- | --- | --- | --- | --- | --- | --- | --- | --- | --- | --- | --- | --- |
| Nc1nc2c(ncn2COCCO)c(=O)[nH]1 [acyclovir] | unaffected | 2 | 169 | twelve | 160 | 9 | two | None of the peptides ending in C showed any change | small but consistent increase | could not detect any acyclovir specific response | – | – | – | – | – | – | – |
| Nc1nc(NC2CC2)c2ncn([C@H]3C=C[C@@H](CO)C3)c2n1 [abacavir, Abacavir sulfate] | – | – | – | – | – | – | all seven | – | – | expanded population of CD8 positive / IFN-γ positive T-cells | 10 | unaffected | up to 5 fold | ≤ 1000 fold and 1,000 fold | 15 | – | – |
| RARQLNYTI | – | – | – | – | – | – | – | – | – | – | – | – | – | – | – | 7.1 ± 1 | 13.7 ± 1.3 |
